According to patent US6479531B1, “Gastrin and cholecystokinin receptor ligands” (James Black Foundation Limited, priority 1998, dated 2002):

Target: T1, CCKB receptor (Mus musculus, UniProt P56481)
T1 construct: The whole brains from male mice (CD1 22-25 g; Charles River) were removed; from tissue; host or cells: cerebral cortex membranes of male CD1 mice
T1 sequence (P56481 1-453): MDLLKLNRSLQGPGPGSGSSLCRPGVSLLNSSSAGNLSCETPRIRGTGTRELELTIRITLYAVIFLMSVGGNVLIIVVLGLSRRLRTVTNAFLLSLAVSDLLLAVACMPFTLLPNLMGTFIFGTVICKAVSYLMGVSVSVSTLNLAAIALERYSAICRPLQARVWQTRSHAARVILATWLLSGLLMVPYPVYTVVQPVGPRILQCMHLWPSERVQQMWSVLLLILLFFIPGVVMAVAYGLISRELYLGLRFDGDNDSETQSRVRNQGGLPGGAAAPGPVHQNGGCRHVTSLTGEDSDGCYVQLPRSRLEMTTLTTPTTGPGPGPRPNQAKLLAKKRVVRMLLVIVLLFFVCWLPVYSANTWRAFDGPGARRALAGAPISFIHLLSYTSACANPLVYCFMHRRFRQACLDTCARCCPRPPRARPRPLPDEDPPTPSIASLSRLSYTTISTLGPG
Assay: CCKB receptor radioligand binding assay in mouse cortical membranes
Conditions: [125I]-CCK8(S) 200 pM, 150 min at 21±3°, read-out: CCKB pKi (converted)
Method: The compounds of the examples were tested for binding at the CCKB receptor in mouse cortical membranes by means of a radioligand binding assay. The procedure was as follows:
The whole brains from male mice (CD1 22-25 g; Charles River) were removed and placed in ice-cold buffer (pH 7.2 @ 21±3°) of the following composition (mM); 10 HEPES, 130 NaCl, 4.7 KCl, 5 MgCl2, 1 EDTA and containing 0.25 gl^−1 bacitracin. The cortex was dissected, weighed and homogenised in 40 ml ice-cold buffer using a Teflon-in-glass homogeniser. The homogenate was centrifuged at 39800 g for 20 min […], the supernatant discarded and the pellet resuspended by homogenisation in fresh buffer. The homogenate was recentrifuged (39800 g, 20 min @ 4°) and the final pellet was resuspended in HEPES buffer to give a tissue concentration of 20 mg ml^−1 (original wet weight).
The assay was terminated by rapid filtration through pre-soaked Whatman GF/B filters using a Brandell Cell Harvester. The filters were washed (3×3 ml) with ice-cold 50 mM Tris-HCl (pH 7.4 @ 4° C.) and bound radioactivity determined by counting (1 min) in a gamma-counter.

Row | Ki | Structure (SMILES)
1 | 1380 nM | O=C(O)c1cccc(NC(=O)c2nc(-c3ccccc3O)[nH]c2CCC23CC4CC(CC(C4)C2)C3)c1 [Example 64, 3-{[5-(2-Adamantan-1-yl-ethyl)-2-(2-hydroxy-phenyl)-1H-imidazole-4-carbonyl]-amino}-benzoic Acid]
2 | 468 nM | O=C(O)c1cccc(NC(=O)c2nc(-c3ccc(Cl)c(Cl)c3)[nH]c2CCC23CC4CC(CC(C4)C2)C3)c1 [Example 68, 3-{[5-(2-Adamantan-1-yl-ethyl)-2-(3,4-dichloro-phenyl)-1H-imidazole-4-carbonyl]-amino}-benzoic Acid]
3 | 245 nM | CN(C)c1ccccc1-c1nc(C(=O)Nc2cccc(C(=O)O)c2)c(CCC23CC4CC(CC(C4)C2)C3)[nH]1 [Example 70, 3-{[5-(2-Adamantan-1-yl-ethyl)-2-(2-dimethylamino-phenyl)-1H-imidazole-4-carbonyl]-amino}-benzoic Acid]
4 | 10000 nM | O=C(O)c1cccc(NC(=O)c2nc[nH]c2CCC23CC4CC(CC(C4)C2)C3)c1 [Example 77, 3-{[5-(2-Adamantan-1-yl-ethyl)-1H-imidazole-4-carbonyl]-amino}-benzoic Acid]
5 | 13.2 nM | O=C(O)Cc1cccc(NC(=O)c2nc(-c3ccccc3)[nH]c2CCC23CC4CC(CC(C4)C2)C3)c1 [Example 82, (3-{[5-(2-Adamantan-1-yl-ethyl)-2-phenyl-1H-imidazole-4-carbonyl]-amino}-phenyl)-acetic Acid]
6 | 2.24 nM | Cc1ccccc1-c1nc(C(=O)Nc2cccc(CC(=O)O)c2)c(CCC23CC4CC(CC(C4)C2)C3)[nH]1 [Example 83, (3-{[5-(2-Adamantan-1-yl-ethyl)-2-o-tolyl-1H-imidazole-4-carbonyl]-amino}-phenyl)-acetic Acid]
7 | 479 nM | O=C(O)c1cccc(CNC(=O)c2nc(-c3ccccc3)[nH]c2CCC23CC4CC(CC(C4)C2)C3)c1 [Example 85, 3-({[5-(2-Adamantan-1-yl-ethyl)-2-phenyl-1H-imidazole-4-carbonyl]-amino}-methyl)-benzoic Acid]
8 | 6610 nM | O=C(O)c1cccc(NC(=O)c2nc(C3CCCCC3)[nH]c2CCc2ccccc2)c1 [Example 88, 3-[(2-Cyclohexyl-5-phenethyl-1H-imidazole-4-carbonyl)-amino]-benzoic Acid]
9 | 3800 nM | Cc1ccccc1-c1nc(C(=O)Nc2cccc(C(=O)O)c2)c(CCC(C)(C)C)[nH]1 [Example 91, 3-{[5-(3,3-Dimethyl-butyl)-2-o-tolyl-1H-imidazole-4-carbonyl]-amino}-benzoic Acid]
10 | 2510 nM | Cc1ccccc1-c1nc(C(=O)N2CCC[C@H]2C(=O)O)c(CCC23CC4CC(CC(C4)C2)C3)[nH]1 [Example 95, (2S)-1-[5-(2-Adamantan-1-yl-ethyl)-2-o-tolyl-1H-imidazole-4-carbonyl]-pyrrolidine-carboxylic Acid]
11 | 25.1 nM | Cc1ccccc1-c1nc(C(=O)Nc2cccc(OCC(=O)O)c2)c(CCC23CC4CC(CC(C4)C2)C3)[nH]1 [Example 98, (3-{[5-(2-Adamantan-1-yl-ethyl)-2-o-tolyl-1H-imidazole-4-carbonyl]-amino}-phenoxy)-acetic Acid]
12 | 186 nM | Cc1ccccc1-c1nc(C(=O)Nc2ccc(CC(=O)O)cc2)c(CCC23CC4CC(CC(C4)C2)C3)[nH]1 [Example 99]
13 | 117 nM | Cc1ccccc1-c1nc(C(=O)Nc2cccc(S(=O)(=O)NC(=O)c3ccccc3)c2)c(CCC23CC4CC(CC(C4)C2)C3)[nH]1 [Example 100, 5-(2-Adamantan-1-yl-ethyl)-2-o-tolyl-1H-imidazole-4-carboxylic Acid (3-benzoylsulfamoyl-phenyl)-amide]
14 | 372 nM | Cc1ccccc1-c1nc(C(=O)Nc2cccc(C(=O)NS(=O)(=O)c3ccccc3)c2)c(CCC23CC4CC(CC(C4)C2)C3)[nH]1 [Example 101, 5-(2-Adamantan-1-yl-ethyl)-2-o-tolyl-1H-imidazole-4-carboxylic acid (3-benzenesulfonylaminocarbonyl-phenyl)-amide]
15 | 776 nM | Cc1ccccc1-c1nc(C(=O)NC(C(=O)O)c2ccccc2)c(CCC23CC4CC(CC(C4)C2)C3)[nH]1 (centres unmarked) [Example 102, {[5-(2-Adamantan-1-yl-ethyl)-2-o-tolyl-1H-imidazole-4-carbonyl]-amino}-phenyl-acetic Acid]
16 | 44.7 nM | O=C(O)c1cccc(NC(=O)c2nc(C34CC5CC(CC(C5)C3)C4)[nH]c2CCC23CC4CC(CC(C4)C2)C3)c1 [Example 109, 3-{[2-Adamantan-1-yl-5-(2-adamantan-1-yl-ethyl)-1H-imidazole-4-carbonyl]-amino}-benzoic Acid]
17 | 776 nM | Cc1ccccc1-c1nc(CCc2cccc(C(=O)O)c2)c(C(=O)NC23CC4CC(CC(C4)C2)C3)[nH]1 [Example 118, 3-{2-[5(Adamantan-1-ylcarbamoyl)-2-o-tolyl-1H-imidazole-4-yl]-ethyl}-benzoic Acid]
18 | 282 nM | Cc1ccccc1-c1nc(CCc2cccc(C(=O)O)c2)c(C(=O)NCC23CC4CC(CC(C4)C2)C3)[nH]1 [Example 119, 3-{2-[5-(Adamantan-1-ylmethylcarbamoyl)-2-o-tolyl-1H-imidazol-4-yl]-ethyl}-benzoic Acid]
19 | 1550 nM | Cc1ccccc1-c1nc(C(=O)Nc2cccc(C(=O)O)c2)c(CCC23CC4CC(CC(C4)C2)C3)o1 [Example 120, 3-{[5-(2-Adamanatan-1-yl-ethyl)-2-o-tolyl-oxazole-4-carbonyl]-amino}-benzoic Acid]
20 | 2400 nM | Cc1ccccc1-c1nc(C(=O)Nc2cccc(C(=O)O)c2)c(CCC23CC4CC(CC(C4)C2)C3)s1 [Example 121, 3-{[5-(2-Adamanatan-1-yl-ethyl)-2-o-tolyl-thiazole-4-carbonyl]-amino}-benzoic Acid]
21 | 204 nM | Cc1ccccc1-c1cc(C(=O)Nc2cccc(C(=O)O)c2)c(CCC23CC4CC(CC(C4)C2)C3)[nH]1 [Example 123, 3-{[2-(2-Adamantan-1-yl-ethyl)-5-o-tolyl-1H-pyrrole-3-carbonyl]-amino}-benzoic Acid]
22 | 1700 nM | O=C(O)c1cccc(NC(=O)c2nc(C3CCCCCCCCCCC3)[nH]c2CCC23CC4CC(CC(C4)C2)C3)c1 [Example 127, 3-{[5-(2-Adamantan-1-yl-ethyl)-2-cyclododecyl-1H-imidazole-4-carbonyl]-amino}-benzoic Acid]
23 | 2140 nM | O=C(O)c1cccc(NC(=O)c2nc(C(C3CCCCC3)C3CCCCC3)[nH]c2CCC23CC4CC(CC(C4)C2)C3)c1 [Example 128, 3-{[5-(2-Adamanatan-1-yl-ethyl)-2-dicyclohexylmethyl-1H-imidazole-4-carbonyl]-amino}-benzoic Acid]
24 | 9.55 nM | O=C(Nc1cccc(-c2nnn[nH]2)c1)c1nc(C2CCCCC2)[nH]c1CCC12CC3CC(CC(C3)C1)C2 [Example 130]
25 | 263 nM | O=C(O)c1cccc(NC(=O)c2nc(-c3cccc4ccccc34)[nH]c2CCC23CC4CC(CC(C4)C2)C3)c1 [Example 145, 3-{[5-(2-Adamantan-1-yl-ethyl)-2-naphthalen-1-yl-1H-imidazole-4-carbonyl]-amino}-benzoic Acid]
26 | 912 nM | O=C(O)c1cccc(NC(=O)c2nc(-c3cc(Cl)cc(Cl)c3)[nH]c2CCC23CC4CC(CC(C4)C2)C3)c1 [Example 147, 3-{[5-(2-Adamantan-1-yl-ethyl)-2-(3,5-dichlorophenyl)-1H-imidazole-4-carbonyl]-amino}-benzoic Acid]
